Reference: ChEMBL document CHEMBL6074631, “Design, synthesis, and evaluation of pyranochromene derivatives as membrane targeting antibacterials against Gram-positive bacteria” (Bioorg Med Chem Lett, 2024)
Values after ≈ are worked out from the molar mass of the structure shown. Active and inactive are the calls of the source. No cut-off for these calls is given here.

Assays:
[1] = tested on: Bacillus subtilis; experiment: Antibacterial activity against […] Bacillus subtilis ATCC9372 assessed as reduction in bacterial growth by broth microdilution assay; type: functional
[2] = tested on: Pseudomonas aeruginosa; experiment: Antibacterial activity against penicillin-susceptible Pseudomonas aeruginosa ATCC27853 assessed as reduction in bacterial growth by broth microdilution assay; type: functional
[3] = tested on: Staphylococcus aureus; experiment: Antibacterial activity against […] Staphylococcus aureus ATCC43300 assessed as reduction in bacterial growth by broth microdilution assay; type: functional
[4] = tested on: Staphylococcus aureus; experiment: Antibacterial activity against Staphylococcus aureus ATCC25923 assessed as reduction in bacterial growth by broth microdilution assay; type: functional
[5] = tested on: Klebsiella pneumoniae; experiment: Antibacterial activity against erythromycin-susceptible Klebsiella pneumoniae ATCC10031 assessed as reduction in bacterial growth by broth microdilution assay; type: functional
[6] = tested on: Enterococcus faecalis; experiment: Antibacterial activity against penicillin-susceptible Enterococcus faecalis ATCC29212 assessed as reduction in bacterial growth by broth microdilution assay; type: functional
[7] = tested on: Escherichia coli; experiment: Antibacterial activity against Escherichia coli ATCC25922 assessed as reduction in bacterial growth by broth microdilution assay; type: functional
[8] = tested on: Staphylococcus aureus; experiment: Antibacterial activity against Staphylococcus aureus ATCC31007 assessed as reduction in bacterial growth by broth microdilution assay; type: functional
[9] = tested on: Acinetobacter baumannii; experiment: Antibacterial activity against Acinetobacter baumannii ATCC19606 assessed as reduction in bacterial growth by broth microdilution assay; type: functional
[10] = tested on: Staphylococcus epidermidis; experiment: Antibacterial activity against vancomycin-susceptible Staphylococcus epidermidis ATCC12228 assessed as reduction in bacterial growth by broth microdilution assay; type: functional
[11] = tested on: Cell membrane; experiment: Disruption of cell membrane integrity in Staphylococcus aureus ATCC43300 assessed as blue fluorescence by DAPI staining based fluorescence assay; type: subcellular
[12] = tested on: Cell membrane; experiment: Disruption of cell membrane integrity in Staphylococcus aureus ATCC43300 assessed as red fluorescence by DAPI staining based fluorescence assay; type: subcellular
[13] = Hemolytic activity in RBC (unknown origin) assessed as hemolysis; type: toxicity, cell-based

Row | Structure (SMILES) | MIC [1] | MIC [2] | MIC [3] | MIC [4] | MIC [5] | MIC [6] | MIC [7] | MIC [8] | MIC [9] | MIC [10] | Activity [11] | Activity [12] | HC90 ([13]; rbc) | HC50 ([13]; red blood cells)
1 | COc1c2c(c3c(c1C(=O)/C=C/c1ccc(OCCCNCCCN4CCN(C)CC4)cc1)OC(C)(CCC=C(C)C)C=C3)OC(C)(CCC=C(C)C)C=C2 (stereo not given) | 4 µg/mL (≈ 5.32 µM) | > 128 µg/mL | 8 µg/mL (≈ 10.6 µM) | 4 µg/mL (≈ 5.32 µM) | > 128 µg/mL | 8 µg/mL (≈ 10.6 µM) | > 128 µg/mL | 4 µg/mL (≈ 5.32 µM) | > 128 µg/mL | 4 µg/mL (≈ 5.32 µM) | – | – | – | –
2 | COc1c2c(c3c(c1C(=O)/C=C/c1ccc(OCCC[N+](C)(C)CCCN(C)C)cc1)OC(C)(CCC=C(C)C)C=C3)OC(C)(CCC=C(C)C)C=C2 (stereo not given) | 4 µg/mL | > 128 µg/mL | 16 µg/mL | 4 µg/mL | > 128 µg/mL | 16 µg/mL | > 128 µg/mL | 32 µg/mL | 32 µg/mL | 2 µg/mL | – | – | – | –
3 | CCN(CC)CCCNC(=O)COc1c2c(c3c(c1C(C)=O)OC(C)(CCC=C(C)C)C=C3)OC(C)(CCC=C(C)C)C=C2 (stereo not given) | 2 µg/mL (≈ 3.3 µM) | 128 µg/mL (≈ 211 µM) | 4 µg/mL (≈ 6.59 µM) | 4 µg/mL (≈ 6.59 µM) | > 128 µg/mL | 2 µg/mL (≈ 3.3 µM) | > 128 µg/mL | 4 µg/mL (≈ 6.59 µM) | > 128 µg/mL | 2 µg/mL (≈ 3.3 µM) | – | – | – | –
4 | COc1c2c(c3c(c1C(=O)/C=C/c1ccc(OCCCN(C)CCCN(C)C)cc1)OC(C)(CCC=C(C)C)C=C3)OC(C)(CCC=C(C)C)C=C2 (stereo not given) | > 128 µg/mL | > 128 µg/mL | > 128 µg/mL | > 128 µg/mL | > 128 µg/mL | 16 µg/mL (≈ 22.5 µM) | > 128 µg/mL | > 128 µg/mL | > 128 µg/mL | 2 µg/mL (≈ 2.81 µM) | – | – | – | –
5 | CCN(CC)CCCNCCCOc1ccc(/C=C/C(=O)c2c(OC)c3c(c4c2OC(C)(CCC=C(C)C)C=C4)OC(C)(CCC=C(C)C)C=C3)cc1 (stereo not given) | 8 µg/mL (≈ 11 µM) | > 128 µg/mL | 16 µg/mL (≈ 22.1 µM) | 16 µg/mL (≈ 22.1 µM) | > 128 µg/mL | 32 µg/mL (≈ 44.1 µM) | > 128 µg/mL | 32 µg/mL (≈ 44.1 µM) | > 128 µg/mL | 4 µg/mL (≈ 5.52 µM) | – | – | – | –
6 | CC[N+](CC)(CC)CCCOc1ccc(/C=C/C(=O)c2c(OC)c3c(c4c2OC(C)(CCC=C(C)C)C=C4)OC(C)(CCC=C(C)C)C=C3)cc1 (stereo not given) | 64 µg/mL | > 128 µg/mL | > 128 µg/mL | 64 µg/mL | > 128 µg/mL | 32 µg/mL | > 128 µg/mL | 64 µg/mL | > 128 µg/mL | 4 µg/mL | – | – | – | –
7 | CCCCN(CCCC)CCCNC(=O)COc1c2c(c3c(c1C(C)=O)OC(C)(CCC=C(C)C)C=C3)OC(C)(CCC=C(C)C)C=C2 (stereo not given) | 8 µg/mL (≈ 12.1 µM) | > 128 µg/mL | 8 µg/mL (≈ 12.1 µM) | 4 µg/mL (≈ 6.03 µM) | > 128 µg/mL | 4 µg/mL (≈ 6.03 µM) | > 128 µg/mL | 4 µg/mL (≈ 6.03 µM) | > 128 µg/mL | 4 µg/mL (≈ 6.03 µM) | – | – | – | –
8 | CC(=O)c1c(OCC(=O)NCCCN2CCCC2)c2c(c3c1OC(C)(CCC=C(C)C)C=C3)OC(C)(CCC=C(C)C)C=C2 (stereo not given) | 16 µg/mL (≈ 26.5 µM) | > 128 µg/mL | 4 µg/mL (≈ 6.61 µM) | 4 µg/mL (≈ 6.61 µM) | > 128 µg/mL | 8 µg/mL (≈ 13.2 µM) | > 128 µg/mL | 4 µg/mL (≈ 6.61 µM) | 128 µg/mL (≈ 212 µM) | 8 µg/mL (≈ 13.2 µM) | – | – | – | –
9 | COc1c2c(c3c(c1C(=O)/C=C/c1ccc(OCCCN4CCOCC4)cc1)OC(C)(CCC=C(C)C)C=C3)OC(C)(CCC=C(C)C)C=C2 (stereo not given) | > 128 µg/mL | > 128 µg/mL | > 128 µg/mL | > 128 µg/mL | > 128 µg/mL | > 128 µg/mL | > 128 µg/mL | > 128 µg/mL | > 128 µg/mL | > 128 µg/mL | – | – | – | –
10 | COc1c2c(c3c(c1C(=O)/C=C/c1ccc(OCCCN4CCSCC4)cc1)OC(C)(CCC=C(C)C)C=C3)OC(C)(CCC=C(C)C)C=C2 (stereo not given) | > 128 µg/mL | > 128 µg/mL | > 128 µg/mL | > 128 µg/mL | > 128 µg/mL | > 128 µg/mL | > 128 µg/mL | > 128 µg/mL | > 128 µg/mL | > 128 µg/mL | – | – | – | –
11 | CN[C@H](CC(C)C)C(=O)N[C@H]1C(=O)N[C@@H](CC(N)=O)C(=O)N[C@H]2C(=O)N[C@H]3C(=O)N[C@H](C(=O)N[C@H](C(=O)O)c4cc(O)cc(O)c4-c4cc3ccc4O)[C@H](O)c3ccc(c(Cl)c3)Oc3cc2cc(c3O[C@@H]2O[C@H](CO)[C@@H](O)[C@H](O)[C@H]2O[C@H]2C[C@](C)(N)[C@H](O)[C@H](C)O2)Oc2ccc(cc2Cl)[C@H]1O [VANCOMYCIN] | 0.5 µg/mL (≈ 0.345 µM) | > 128 µg/mL | – | – | 128 µg/mL (≈ 88.3 µM) | 2 µg/mL (≈ 1.38 µM) | 128 µg/mL (≈ 88.3 µM) | – | 16 µg/mL (≈ 11 µM) | – | – | – | – | –
12 | CC(=O)c1c(OCC(=O)N(C)CCCN(C)C)c2c(c3c1OC(C)(CCC=C(C)C)C=C3)OC(C)(CCC=C(C)C)C=C2 (stereo not given) | 2 µg/mL (≈ 3.37 µM) | 128 µg/mL (≈ 216 µM) | 4 µg/mL (≈ 6.75 µM) | 4 µg/mL (≈ 6.75 µM) | > 128 µg/mL | 2 µg/mL (≈ 3.37 µM) | > 128 µg/mL | 4 µg/mL (≈ 6.75 µM) | 128 µg/mL (≈ 216 µM) | 2 µg/mL (≈ 3.37 µM) | – | – | – | –
13 | CC[C@H](C)[C@H](NC(=O)CN)C(=O)NCC(=O)N[C@@H](C)C(=O)N[C@H](C(=O)N[C@@H](CC(C)C)C(=O)N[C@@H](CCCCN)C(=O)N[C@H](C(=O)N[C@@H](CC(C)C)C(=O)N[C@H](C(=O)N[C@H](C(=O)NCC(=O)N[C@@H](CC(C)C)C(=O)N1CCC[C@H]1C(=O)N[C@@H](C)C(=O)N[C@@H](CC(C)C)C(=O)N[C@H](C(=O)N[C@@H](CO)C(=O)N[C@@H](Cc1c[nH]c2ccccc12)C(=O)N[C@H](C(=O)N[C@@H](CCCCN)C(=O)N[C@@H](CCCNC(=N)N)C(=O)N[C@@H](CCCCN)C(=O)N[C@@H](CCCNC(=N)N)C(=O)N[C@@H](CCC(N)=O)C(=O)N[C@@H](CCC(N)=O)C(N)=O)[C@@H](C)CC)[C@@H](C)CC)[C@@H](C)O)[C@@H](C)O)C(C)C)C(C)C | – | – | – | – | – | – | – | – | – | – | Active | Active | – | –
14 | CNCCN(C)C(=O)COc1c2c(c3c(c1C(C)=O)OC(C)(CCC=C(C)C)C=C3)OC(C)(CCC=C(C)C)C=C2 (stereo not given) | 16 µg/mL (≈ 28.3 µM) | 128 µg/mL (≈ 227 µM) | 4 µg/mL (≈ 7.08 µM) | 4 µg/mL (≈ 7.08 µM) | 128 µg/mL (≈ 227 µM) | 8 µg/mL (≈ 14.2 µM) | > 128 µg/mL | 4 µg/mL (≈ 7.08 µM) | 128 µg/mL (≈ 227 µM) | 4 µg/mL (≈ 7.08 µM) | – | – | – | –
15 | CCNCCCOc1ccc(/C=C/C(=O)c2c(OC)c3c(c4c2OC(C)(CCC=C(C)C)C=C4)OC(C)(CCC=C(C)C)C=C3)cc1 (stereo not given) | 128 µg/mL (≈ 200 µM) | 128 µg/mL (≈ 200 µM) | > 128 µg/mL | > 128 µg/mL | > 128 µg/mL | > 128 µg/mL | > 128 µg/mL | > 128 µg/mL | 128 µg/mL (≈ 200 µM) | > 128 µg/mL | – | – | – | –
16 | COc1c2c(c3c(c1C(=O)/C=C/c1ccc(OCCCN(CCCN(C)C)CCCN(C)C)cc1)OC(C)(CCC=C(C)C)C=C3)OC(C)(CCC=C(C)C)C=C2 (stereo not given) | 8 µg/mL (≈ 10.2 µM) | > 128 µg/mL | 8 µg/mL (≈ 10.2 µM) | 8 µg/mL (≈ 10.2 µM) | > 128 µg/mL | 8 µg/mL (≈ 10.2 µM) | > 128 µg/mL | 8 µg/mL (≈ 10.2 µM) | > 128 µg/mL | 2 µg/mL (≈ 2.56 µM) | – | – | – | –
17 | CC(=O)c1c(OCC(=O)NCCCN2CCN(C)CC2)c2c(c3c1OC(C)(CCC=C(C)C)C=C3)OC(C)(CCC=C(C)C)C=C2 (stereo not given) | 2 µg/mL (≈ 3.16 µM) | > 128 µg/mL | 4 µg/mL (≈ 6.31 µM) | 2 µg/mL (≈ 3.16 µM) | > 128 µg/mL | 0.5 µg/mL (≈ 0.789 µM) | > 128 µg/mL | 2 µg/mL (≈ 3.16 µM) | 128 µg/mL (≈ 202 µM) | 1 µg/mL (≈ 1.58 µM) | – | – | 137.3 µg/mL | 46 µg/mL
18 | COc1c2c(c3c(c1C(=O)/C=C/c1ccc(OCCC[N+](C)(C)CCCN)cc1)OC(C)(CCC=C(C)C)C=C3)OC(C)(CCC=C(C)C)C=C2 (stereo not given) | 8 µg/mL | > 128 µg/mL | 32 µg/mL | 16 µg/mL | > 128 µg/mL | > 128 µg/mL | > 128 µg/mL | 8 µg/mL | > 128 µg/mL | 4 µg/mL | – | – | – | –
